System: human bone marrow mesenchymal stem cells (MSCs)
Assay: Proliferation of human bone marrow MSCs in basic medium with E2 or E3 (MTS, Example 3)
Type: cell-based
Procedure: This study investigates the mitogenic effects of estrogen receptor ligands on human bone marrow MSCs that is not contacted with osteogenic or adipogenic medium. Purified human bone marrow mesenchymal stem cells (MSCs) were purchased commercially. MSCs were respectively exposed to basic medium (DMEM+10% FBS+1% antibiotics), and basic medium supplement with 10^−6 and 10^−9 M 17-β estradiol (E2) and estriol (E3) for approximately one week. Then, various cells were plated into 96-well plates in 500 cells/well and continued to be exposed to the media. After 4 days, cell densities were measured by MTS methods and compared to initial densities. FIG. 8 illustrates the increase of the number of MSCs after being treated with basic medium and basic medium supplemented with E2 or E3.

## C[C@]12CC[C@@H]3c4ccc(O)cc4CC[C@H]3[C@@H]1C[C@@H](O)[C@@H]2O [E3, estriol]
10^−6 and 10^−9 M, about one week then 4 days in 96-well plates, FIG. 8
  cell proliferation (MTS assay and cell counting): greatly increased
Vs controls
  differentiation capabilities (adipogenic and osteogenic) of modulated MSCs: maintain their differentiation capabilities

— US20080118980A1, “Estrogen Enhancing Differentiation of Human Mesenchymal Stromal Cells and Adipose-derived Stromal Cells” (The Board of Trustees of the University of Illinois,, priority 2006, published 2008)
